Results from US8815879B2, “Substituted 4-(selenophen-2(or-3)-ylamino)pyrimidine compounds and methods of use thereof” (Kasina Laila Innova Pharmaceuticals Private Limited, priority 2010, dated 2014).
pIC50: −log10 of the molar value. Where a name gives a salt, the structure may show the parent alone. Read-outs that look alike come from different tables or passages of the source.

Tests used:
[1] = test system: human lung carcinoma A549 cells; test: MTT based cell proliferation assay, A549; conditions: for inhibition at 10 µg/mL / pIC50: Homo sapiens, A549, 72 h; for inhibition at 10 µg/mL: read-out: Cell Proliferation Inhibition in A549 (Lung carcinoma), % at highest screening dose; for pIC50: read-out: Cell Proliferation Inhibition in A549 (Lung carcinoma), IC50
Description: (§1) MTT [3-(4,5-dimethylthiazol-2-yl)-2,5-diphenyltetrazolium bromide] incorporation based cell proliferation assay was performed using standard procedure. […] The assay was carried out according to the instructions provided by the vendor. […] Vehicle control culture wells received only a maximum of 0.5% DMSO. Thereafter, 0.5 mg/ml of MTT reagent was added to each well and the microplate was incubated further for 4 h at 37° C. in presence of 5% CO2. Finally, the cells were solubilized by adding solubilizing solution and allowed to incubate at 37° C. overnight. After complete solubilization of the formazan crystals the absorbance was read at 540 nm in a microplate reader (BioRad, USA).
(§2) The evaluation of cell proliferation inhibitory activities of the compounds was done in two phases—(1) Screening, and (2) half-maximal inhibitory concentration (IC50) determination. In the screening phase, the cells were treated with three different concentrations e.g. 1, 5 and 10 μg/ml.

[2] = test system: human colorectal carcinoma HT29 cells; test: MTT based cell proliferation assay, HT29; conditions: for inhibition at 10 µg/mL: read-out: Cell Proliferation Inhibition in HT29 (Colon carcinoma), % at highest screening dose; for pIC50: read-out: Cell Proliferation Inhibition in HT29 (Colon carcinoma), IC50
Description: as §1, §2

[3] = test system: human prostate DU145 cells; test: MTT based cell proliferation assay, DU145; conditions: for inhibition at 10 µg/mL: read-out: Cell Proliferation Inhibition in DU145 (Prostate carcinoma), % at highest screening dose; for pIC50: read-out: Cell Proliferation Inhibition in DU145 (Prostate carcinoma), IC50
Description: as §1, §2

Compound | inhibition at 10 µg/mL [1] | inhibition at 10 µg/mL ([2]; Homo sapiens, HT-29, 72 h) | inhibition at 10 µg/mL ([3]; Homo sapiens, DU-145, 72 h) | pIC50 ([2]; Homo sapiens, HT-29, 72 h) | other results
COc1cc2ncnc(Nc3cc(-c4ccccc4)[se]c3C(N)=O)c2cc1OCCCN1CCOCC1 (as salt: HCl) [Compound 7, 3-(6-(3-morpholinopropoxy)-7-methoxyquinazolin-4-ylamino)-5-phenyl-selenophene-2-carboxamide] |  |  |  |  | melting point: 266 to 270 °C
COc1cc2ncnc(Nc3cc(C(N)=O)[se]c3C)c2cc1OCCCN1CCOCC1 [Compound 11, 4-(6-(3-morpholinopropoxy)-7-methoxyquinazolin-4-ylamino)-5-methylselenophene-2-carboxamide] | 16% | 7.41% | 5.15% |  | 
CC(C)(C)c1cc(Nc2ncnc3ccc(NC(=O)CCl)cc23)c(C(N)=O)[se]1 [Compound 9, 3-(6-(2-chloroacetamido)quinazolin-4-ylamino)-5-tert-butylselenophene-2-carboxamide] | 0.19% |  |  | 5.03 | pIC50 ([3]; Homo sapiens, DU-145, 72 h): 5.07
COc1cc2ncnc(N(CCCl)c3cc(C(C)(C)C)[se]c3C(N)=O)c2cc1OCCCN1CCOCC1 [Compound 23, 3-(N-(6-(3-morpholinopropoxy)-7-methoxyquinazolin-4-yl)-N-(2-chloroethyl)amino)-5-tert-butylselenophene-2-carboxamide] | 3.28% | 40.7% | 22.4% |  | 
CC(C)(C)c1cc(Nc2ncnc3ccc(N)cc23)c(C(N)=O)[se]1 (as salt: HCl) [Compound 8, 3-(6-aminoquinazolin-4-ylamino)-5-tert-butylselenophene-2-carboxamide] |  |  |  |  | melting point: 170 to 172 °C
CC(C)(C)c1cc(Nc2ncnc3ncccc23)c(C(N)=O)[se]1 [Compound 12, 5-tert-butyl-3-(pyridino[2,3-d]pyrimidin-4-ylamino)selenophene-2-carboxamide] | 7% | 6.75% | 9.18% |  | 
COc1cc2nc(C)nc(Nc3cc(C(C)(C)C)[se]c3C(N)=O)c2cc1OC [Compound 24, 3-(6,7-dimethoxy-2-methylquinazolin-4-ylamino)-5-tert-butylselenophene-2-carboxamide] | 15.1% |  | 87.7% | 4.98 | 
CC(C)(C)c1cc(Nc2ncnc3cc(C(C)(C)C)[se]c23)c(C(N)=O)[se]1 [Compound 18, 3-(6-tert-butylselenopheno[3,2-d]pyrimidin-4-ylamino)-5-tert-butylselenophene-2-carboxamide] | 2.18% | 36.4% | 7.87% |  | 
COc1cc2nc(C)nc(Nc3cc(C(C)(C)C)[se]c3C(N)=O)c2cc1OCCCN1CCOCC1 [Compound 26, 3-(6-(3-morpholinopropoxy)-7-methoxy-2-methylquinazolin-4-ylamino)-5-tert-butylselenophene-2-carboxamide] |  |  |  | 5.37 | pIC50 [1]: 4.93; pIC50 ([3]; Homo sapiens, DU-145, 72 h): 5.17
COc1cc2ncnc(N(C)c3cc(C(C)(C)C)[se]c3C(N)=O)c2cc1OCCCN1CCOCC1 [Compound 22, 3-(N-(6-(3-morpholinopropoxy)-7-methoxyquinazolin-4-yl)-N-methylamino)-5-tert-butylselenophene-2-carboxamide] | 3.93% | 34.3% | 14.7% |  | 
COc1cc2ncnc(Nc3cc(C(C)(C)C)[se]c3[N+](=O)[O-])c2cc1OCCCN1CCOCC1 [Compound 4, [5-(tert-butyl)-2-nitroselenophen-3-yl][7-methoxy-6-(3-morpholino-propoxy)quinazolin-4-yl]amine] | 10.4% |  | 9.85% | 4.71 | 
CCc1c(C)[se]c2ncnc(Nc3cc(C(C)(C)C)[se]c3C(N)=O)c12 [Compound 19, 3-(5-ethyl-6-methylselenopheno[2,3-d]pyrimidin-4-ylamino)-5-tert-butylselenophene-2-carboxamide] | 7.86% | 43.9% | 6.68% |  | 
COc1cc2ncnc(Nc3cc(C(C)(C)C)[se]c3C(N)=O)c2cc1OCCCN1CCOCC1 [Compound 3, 3-(6-(3-morpholinopropoxy)-7-methoxyquinazolin-4-ylamino)-5-tert-butylselenophene-2-carboxamide] |  |  |  | 5.29 | pIC50 [1]: 5.17; pIC50 ([3]; Homo sapiens, DU-145, 72 h): 5.13
COC(=O)c1cc(Nc2nc(C)nc3cc(OC)c(OC)cc23)c(C)[se]1 [Compound 25, methyl 4-(6,7-dimethoxy-2-methylquinazolin-4-ylamino)-5-methylselenophene-2-carboxylate] | 2.95% | 11.8% | 2.59% |  | 
COc1cc2c(Nc3cc(C(C)(C)C)[se]c3C(N)=O)ncnc2c(OC)c1OC [Compound 2, 3-(6,7,8-trimethoxyquinazolin-4-ylamino)-5-tert-butylselenophene-2-carboxamide] |  |  |  | 4.71 | pIC50 [1]: 4.51; pIC50 ([3]; Homo sapiens, DU-145, 72 h): 5.22
COCCOc1cc2ncnc(Nc3cc(C(C)(C)C)[se]c3C(N)=O)c2cc1OCCOC [Compound 6, 3-(6,7-bis(2-methoxyethoxy)quinazolin-4-ylamino)-5-tert-butylselenophene-2-carboxamide] | 5.09% | 86.4% | 39.7% |  | 
COc1cc2ncnc(Nc3cc(-c4ccccc4)[se]c3C(N)=O)c2cc1OCCCN1CCOCC1 [Compound 7, 3-(6-(3-morpholinopropoxy)-7-methoxyquinazolin-4-ylamino)-5-phenyl-selenophene-2-carboxamide] |  | 85.8% |  |  | pIC50 [1]: 5.22; pIC50 ([3]; Homo sapiens, DU-145, 72 h): 5.23
COC(=O)c1cc(Nc2ncnc3cc(OC)c(OCCCN4CCOCC4)cc23)c(C)[se]1 [Compound 10, methyl 4-(6-(3-morpholinopropoxy)-7-methoxyquinazolin-4-ylamino)-5-methylselenophene-2-carboxylate] | 10.3% | 6.11% | 21.4% |  | 
COc1cc2c(Nc3cc(C(C)(C)C)[se]c3C(N)=O)ncnc2cc1OCCCN1CCOCC1 [Compound 5, 3-(7-(3-morpholinopropoxy)-6-methoxyquinazolin-4-ylamino)-5-tert-butylselenophene-2-carboxamide] |  |  |  | 5.39 | pIC50 [1]: 5.34; potency in vitro compared to gefitinib (Iressa), A549 ([1]; ratio of IC50 values): approximately four times; potency in vitro compared to gefitinib (Iressa), HT29 ([2]; ratio of IC50 values): several times better potency; pIC50 ([3]; Homo sapiens, DU-145, 72 h): 5.41; potency in vitro compared to gefitinib (Iressa), DU145 ([3]; ratio of IC50 values): several times better potency
CCc1c(C)sc2ncnc(Nc3cc(C(C)(C)C)[se]c3C(N)=O)c12 [Compound 13, 3-(5-ethyl-6-methylthiopheno[2,3-d]pyrimidin-4-ylamino)-5-tert-butylselenophene-2-carboxamide] | 5.68% | 30.2% | 8.49% |  | 
CSc1nc2ncnc(Nc3cc(C(C)(C)C)[se]c3C(N)=O)c2s1 [Compound 20, 3-(2-(methylthio)thiazolo[4,5-d]pyrimidin-7-ylamino)-5-tert-butylseleno-phene-2-carboxamide] |  |  |  |  | Cell Proliferation Inhibition in A549 (Lung carcinoma), % at highest screening dose ([1]; at 10 μg/ml (highest dose tested in screening), micromolar equivalent printed in each cell, three days): 1.28% at 23.42 μM; pIC50 ([2]; MTT, three days incubation): 5.02; pIC50 ([3]; MTT, three days incubation): 4.75
CC(C)(C)c1cc(Nc2ncnc3ccc(N)cc23)c(C(N)=O)[se]1 [Compound 8, 3-(6-aminoquinazolin-4-ylamino)-5-tert-butylselenophene-2-carboxamide] | 7.6% | 81.9% | 15.7% |  | 
